Source: PubChem BioAssay (NCI)
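Compound exposure: 48 hours, 5 concentrations, 96-well plates. TGI denotes the concentration required for complete inhibition of growth.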

Assays:
Assay in all cases: NCI-60 cell line screen, 48 h
[1] = tested on: UACC-62 melanoma
[2] = tested on: SK-MEL-5 melanoma
[3] = tested on: MCF7 breast
[4] = tested on: SK-MEL-2 melanoma
[5] = tested on: 786-0 renal
[6] = tested on: OVCAR-4 ovarian
[7] = tested on: HCT-15 colon
[8] = tested on: A498 renal
[9] = tested on: OVCAR-8 ovarian
[10] = tested on: TK-10 renal
[11] = tested on: A549 NSCLC
[12] = tested on: U251 CNS
[13] = tested on: HCT-116 colon
[14] = tested on: NCI-H460 lung
[15] = tested on: HS 578T breast
[16] = tested on: MDA-N
[17] = tested on: SW-620 colon
[18] = tested on: SK-OV-3 ovarian
[19] = tested on: HOP-62 NSCLC
[20] = tested on: EKVX NSCLC
[21] = tested on: K-562 leukemia
[22] = tested on: HL-60(TB) leukemia
[23] = tested on: DU-145 prostate
[24] = tested on: UO-31 renal
[25] = tested on: MDA-MB-231 breast
[26] = tested on: M14 melanoma
[27] = tested on: RPMI-8226 leukemia
[28] = tested on: HOP-92 NSCLC
[29] = tested on: HCC-2998 colon
[30] = tested on: SNB-19 CNS
[31] = tested on: NCI-H522 lung
[32] = tested on: SR leukemia
[33] = tested on: SNB-75 CNS
[34] = tested on: SF-295 CNS
[35] = tested on: MALME-3M melanoma
[36] = tested on: UACC-257 melanoma
[37] = tested on: NCI-H23 lung
[38] = tested on: IGROV1 ovarian
[39] = tested on: HT29 colon
[40] = tested on: SN12C renal
[41] = tested on: BT-549 breast
[42] = tested on: KM12 colon
[43] = tested on: LOX IMVI melanoma
[44] = tested on: SF-268 CNS
[45] = tested on: CAKI-1 renal
[46] = tested on: OVCAR-3 ovarian
[47] = tested on: RXF 393 renal
[48] = tested on: T-47D breast
[49] = tested on: MOLT-4 leukemia
[50] = tested on: NCI/ADR-RES ovarian
[51] = tested on: COLO 205 colon
[52] = tested on: SF-539 CNS
[53] = tested on: PC-3 prostate
[54] = tested on: NCI-H226 lung
[55] = tested on: SK-MEL-28 melanoma
[56] = tested on: ACHN renal
[57] = tested on: OVCAR-5 ovarian
[58] = tested on: MDA-MB-435
[59] = tested on: CCRF-CEM leukemia

SMILES: N#CC1=C(N)OC2=C(CCCc3ccc([N+](=O)[O-])cc32)C1c1ccccc1 (configuration not stated)
- TGI [1]: 6.12 µM
- TGI [2]: 13 µM
- TGI [3]: 15.2 µM
- TGI [4]: 34.1 µM
- TGI [5]: 26.9 µM
- TGI [6]: > 100 µM
- TGI [7]: 16.7 µM
- TGI [8]: 10.5 µM
- TGI [9]: 22.4 µM
- TGI [10]: 49.1 µM
- TGI [11]: > 100 µM
- TGI [12]: 17.5 µM
- TGI [13]: 16 µM
- TGI [14]: 23.1 µM
- TGI [15]: > 100 µM
- TGI [16]: 5.38 µM
- TGI [17]: 15.7 µM
- TGI [18]: 58.5 µM
- TGI [19]: 17.4 µM
- TGI [20]: 35.2 µM
- TGI [21]: 13.8 µM
- TGI [22]: 4.19 µM
- TGI [23]: 15.4 µM
- TGI [24]: 20.9 µM
- TGI [25]: > 100 µM
- TGI [26]: 12.4 µM
- TGI [27]: 10.9 µM
- TGI [28]: 44.9 µM
- TGI [29]: 6.41 µM
- TGI [30]: 45.2 µM
- TGI [31]: 10.9 µM
- TGI [32]: 9.56 µM
- TGI [33]: > 100 µM
- TGI [34]: 13.9 µM
- TGI [35]: 20.6 µM
- TGI [36]: 24.6 µM
- TGI [37]: 36 µM
- TGI [38]: 23.7 µM
- TGI [39]: 12.2 µM
- TGI [40]: 20.4 µM
- TGI [41]: 29.7 µM
- TGI [42]: 14.8 µM
- TGI [43]: 19.6 µM
- TGI [44]: 21.9 µM
- TGI [45]: > 100 µM
- TGI [46]: 6.33 µM
- TGI [47]: 8.88 µM
- TGI [48]: 30.5 µM
- TGI [49]: 18.7 µM
- TGI [50]: 7.45 µM
- TGI [51]: 13.7 µM
- TGI [52]: 12.7 µM
- TGI [53]: 44.7 µM
- TGI [54]: 31 µM
- TGI [55]: 22.4 µM
- TGI [56]: 45.2 µM
- TGI [57]: 43.1 µM

SMILES: CC1COC(c2cn[nH]c2C(N)=O)C1O (configuration not stated)
- TGI [1]: > 100 µM
- TGI [2]: > 100 µM
- TGI [58]: > 100 µM
- TGI [3]: > 100 µM
- TGI [4]: > 100 µM
- TGI [5]: > 100 µM
- TGI [6]: > 100 µM
- TGI [7]: > 100 µM
- TGI [8]: > 100 µM
- TGI [9]: > 100 µM
- TGI [10]: > 100 µM
- TGI [11]: > 100 µM
- TGI [12]: > 100 µM
- TGI [13]: > 100 µM
- TGI [14]: > 100 µM
- TGI [15]: > 100 µM
- TGI [16]: > 100 µM
- TGI [17]: > 100 µM
- TGI [18]: > 100 µM
- TGI [19]: > 100 µM
- TGI [20]: > 100 µM
- TGI [21]: > 100 µM
- TGI [22]: > 100 µM
- TGI [23]: > 100 µM
- TGI [24]: > 100 µM
- TGI [25]: > 100 µM
- TGI [26]: > 100 µM
- TGI [27]: > 100 µM
- TGI [30]: > 100 µM
- TGI [31]: > 100 µM
- TGI [32]: > 100 µM
- TGI [33]: > 100 µM
- TGI [34]: > 100 µM
- TGI [36]: > 100 µM
- TGI [37]: > 100 µM
- TGI [38]: > 100 µM
- TGI [39]: > 100 µM
- TGI [40]: > 100 µM
- TGI [41]: > 100 µM
- TGI [42]: > 100 µM
- TGI [43]: > 100 µM
- TGI [44]: > 100 µM
- TGI [45]: > 100 µM
- TGI [46]: > 100 µM
- TGI [48]: > 100 µM
- TGI [59]: > 100 µM
- TGI [49]: > 100 µM
- TGI [50]: > 100 µM
- TGI [51]: > 100 µM
- TGI [52]: > 100 µM
- TGI [53]: > 100 µM
- TGI [54]: > 100 µM
- TGI [55]: > 100 µM
- TGI [56]: > 100 µM
- TGI [57]: > 100 µM
